Results reported in patent publication US20240238423A9, “TETRAHYDROISOQUINOLINE HETEROBIFUNCTIONAL BCL-XL DEGRADERS” (Treeline Biosciences, Inc., priority 2022, published 2024).
Like-named read-outs stand apart in the source and are kept apart here.

Target: T1, Human BCL-XL protein (N-terminal HiBiT tagged BCL-XL in HT1080 cells) (Homo sapiens, UniProt Q07817)
T1 construct: expressed in transfected cells; host or cells: HT-1080 (ATCC CCL-121), stably transduced with lentivirus pLV-UBC-N-HiBiT-BCL-XL-PGK-puro and selected with puromycin
T1 sequence (Q07817 whole entry): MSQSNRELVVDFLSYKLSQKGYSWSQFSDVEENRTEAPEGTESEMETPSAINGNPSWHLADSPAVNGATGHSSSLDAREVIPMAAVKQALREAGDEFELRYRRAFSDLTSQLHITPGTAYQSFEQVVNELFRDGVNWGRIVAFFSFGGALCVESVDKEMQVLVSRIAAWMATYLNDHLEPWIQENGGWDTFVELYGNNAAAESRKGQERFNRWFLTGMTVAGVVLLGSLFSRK
Assay: HiBiT based degradation assay
Format: cell-based
Conditions: HT1080 cells expressing HiBiT-BCL-XL; for Ymin (6 h) / Ymin (24 h): BCL-XL degradation normalized with DMSO control; for DC50: BCL-XL degradation
Method in brief: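 HT1080 cells stably transduced by lentivirus with N-terminally HiBiT-tagged human BCL-XL and kept under 1 μg/mL puromycin selection were seeded at three thousand cells per well in 40 μL RPMI 1640 into 384-well plates pre-spotted with compounds across a concentration range. Luminescence was read on a PHERAstar FSX, normalized to DMSO, and fitted with a four-parameter logistic model.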

Ymin (6 h) | Ymin (24 h) | DC50 (6 h, read-out: EC50 (6 h)) [µM] | DC50 (24 h, read-out: EC50 (24 h)) [µM] | SMILES
C (Ymin ≥ 70%) | B (50% ≤ Ymin < 70%) | < 0.1 | 0.1 to 1 | Cc1c(OCCCC2CCN(CC(=O)Nc3cccc4c(C5CCC(=O)NC5=O)nn(C)c34)CC2)cccc1-c1ccc(N2CCc3cccc(C(=O)Nc4nc5ccccc5s4)c3C2)nc1C(=O)O (stereo not drawn) [Compound 158, 6-(8-(benzo[d]thiazol-2-ylcarbamoyl)-3,4-dihydroisoquinolin-2(1H)-yl)-3-(3-(3-(1-(2-((3-(2,6-dioxopiperidin-3-yl)-1-methyl-1H-indazol-7-yl)amino)-2-oxoethyl)piperidin-4-yl)propoxy)-2-methylphenyl)picolinic acid]
B (50% ≤ Ymin < 70%) | – | < 0.1 | – | Cc1c(OCCN2C[C@@H](C)N(CC(=O)Nc3ccc4c(C5CCC(=O)NC5=O)nn(C)c4c3)[C@@H](C)C2)cccc1-c1ccc(N2CCc3cccc(C(=O)Nc4nc5ccccc5s4)c3C2)nc1C(=O)O (stereo partly drawn) [Compound 159a, 6-(8-(benzo[d]thiazol-2-ylcarbamoyl)-3,4-dihydroisoquinolin-2(1H)-yl)-3-(3-(2-((3R,5S)-4-(2-((3-(2,6-dioxopiperidin-3-yl)-1-methyl-1H-indazol-6-yl)amino)-2-oxoethyl)-3,5-dimethylpiperazin-1-yl)ethoxy)-2-methylphenyl)picolinic acid]
– | A (Ymin < 50%) | – | < 0.1 | Cc1c(OCCC[C@@H]2CCN(CC(=O)Nc3ccc4c(C5CCC(=O)NC5=O)nn(C)c4c3)C2)cccc1-c1ccc(N2CCc3cccc(C(=O)Nc4nc5ccccc5s4)c3C2)nc1C(=O)O (stereo partly drawn) [Compound 160a, 6-[8-(1,3-benzothiazol-2-ylcarbamoyl)-3,4-dihydro-1H-isoquinolin-2-yl]-3-[3-[3-[(3R)-1-[2-[[3-(2,6-dioxo-3-piperidyl)-1-methyl-indazol-6-yl]amino]-2-oxo-ethyl]pyrrolidin-3-yl]propoxy]-2-methyl-phenyl]pyridine-2-carboxylic acid]
– | A (Ymin < 50%) | – | < 0.1 | Cc1c(OCCC[C@H]2CCN(CC(=O)Nc3ccc4c(C5CCC(=O)NC5=O)nn(C)c4c3)C2)cccc1-c1ccc(N2CCc3cccc(C(=O)Nc4nc5ccccc5s4)c3C2)nc1C(=O)O (stereo partly drawn) [Compound 160b, 6-(8-(benzo[d]thiazol-2-ylcarbamoyl)-3,4-dihydroisoquinolin-2(1H)-yl)-3-(3-(3-((3S)-1-(2-((3-(2,6-dioxopiperidin-3-yl)-1-methyl-1H-indazol-6-yl)amino)-2-oxoethyl)pyrrolidin-3-yl)propoxy)-2-methylphenyl)picolinic acid]
– | A (Ymin < 50%) | – | < 0.1 | Cc1c(O[C@H]2CC[C@H](CCCCN3CCN(c4ccc5c(C6CCC(=O)NC6=O)nn(C)c5c4)CC3)CC2)cccc1-c1ccc(N2CCc3cccc(C(=O)Nc4nc5ccccc5s4)c3C2)nc1C(=O)O (stereo partly drawn) [Compound 161a, 6-(8-(benzo[d]thiazol-2-ylcarbamoyl)-3,4-dihydroisoquinolin-2(1H)-yl)-3-(3-(((1s,4r)-4-(4-(4-(3-(2,6-dioxopiperidin-3-yl)-1-methyl-1H-indazol-6-yl)piperazin-1-yl)butyl)cyclohexyl)oxy)-2-methylphenyl)picolinic acid]
B (50% ≤ Ymin < 70%) | A (Ymin < 50%) | < 0.1 | < 0.1 | Cc1c(O[C@@H](C)CCC2CCN(CC(=O)Nc3ccc4c(C5CCC(=O)NC5=O)nn(C)c4c3)CC2)cccc1-c1ccc(N2CCc3cccc(C(=O)Nc4nc5ccccc5s4)c3C2)nc1C(=O)O (stereo partly drawn) [Compound 162a, 6-[8-(1,3-benzothiazol-2-ylcarbamoyl)-3,4-dihydro-H-isoquinolin-2-yl]-3-[3-[(1 S)-3-[1-[2-[[3-(2,6-dioxo-3-piperidyl)-1-methyl-indazol-6-yl]amino]-2-oxo-ethyl]-4-piperidyl]-1-methyl-propoxy]-2-methyl-phenyl]pyridine-2-carboxylic acid]
C (Ymin ≥ 70%) | B (50% ≤ Ymin < 70%) | 0.1 to 1 | < 0.1 | Cc1c(O[C@H](C)CCC2CCN(CC(=O)Nc3ccc4c(C5CCC(=O)NC5=O)nn(C)c4c3)CC2)cccc1-c1ccc(N2CCc3cccc(C(=O)Nc4nc5ccccc5s4)c3C2)nc1C(=O)O (stereo partly drawn) [Compound 162b, 6-[8-(1,3-benzothiazol-2-ylcarbamoyl)-3,4-dihydro-1H-isoquinolin-2-yl]-3-[3-[(1R)-3-[1-[2-[[3-(2,6-dioxo-3-piperidyl)-1-methyl-indazol-6-yl]amino]-2-oxo-ethyl]-4-piperidyl]-1-methyl-propoxy]-2-methyl-phenyl]pyridine-2-carboxylic acid]
– | A (Ymin < 50%) | – | < 0.1 | Cc1c(Oc2ccc(CCCCN3CCN(c4ccc5c(C6CCC(=O)NC6=O)nn(C)c5c4)CC3)cc2)cccc1-c1ccc(N2CCc3cccc(C(=O)Nc4nc5ccccc5s4)c3C2)nc1C(=O)O (stereo not drawn) [Compound 163, 6-(8-(benzo[d]thiazol-2-ylcarbamoyl)-3,4-dihydroisoquinolin-2(1H)-yl)-3-(3-(4-(4-(4-(3-(2,6-dioxopiperidin-3-yl)-1-methyl-1H-indazol-6-yl)piperazin-1-yl)butyl)phenoxy)-2-methylphenyl)picolinic acid]
– | A (Ymin < 50%) | – | < 0.1 | Cc1c(OCCCC2CCN([C@@H](C)C(=O)Nc3ccc4c(C5CCC(=O)NC5=O)nn(C)c4c3)CC2)cccc1-c1ccc(N2CCc3cccc(C(=O)Nc4nc5ccccc5s4)c3C2)nc1C(=O)O (stereo partly drawn) [Compound 164a, 6-(8-(benzo[d]thiazol-2-ylcarbamoyl)-3,4-dihydroisoquinolin-2(1H)-yl)-3-(3-(3-(1-((2S)-1-((3-(2,6-dioxopiperidin-3-yl)-1-methyl-1H-indazol-6-yl)amino)-1-oxopropan-2-yl)piperidin-4-yl)propoxy)-2-methylphenyl)picolinic acid]
– | A (Ymin < 50%) | – | < 0.1 | Cc1c(OCCCC2CCN([C@H](C)C(=O)Nc3ccc4c(C5CCC(=O)NC5=O)nn(C)c4c3)CC2)cccc1-c1ccc(N2CCc3cccc(C(=O)Nc4nc5ccccc5s4)c3C2)nc1C(=O)O (stereo partly drawn) [Compound 164b, 6-(8-(benzo[d]thiazol-2-ylcarbamoyl)-3,4-dihydroisoquinolin-2(1H)-yl)-3-(3-(3-(1-((2R)-1-((3-(2,6-dioxopiperidin-3-yl)-1-methyl-1H-indazol-6-yl)amino)-1-oxopropan-2-yl)piperidin-4-yl)propoxy)-2-methylphenyl)picolinic acid]
– | B (50% ≤ Ymin < 70%) | – | 0.1 to 1 | Cc1c(OCCCN2CCN(CCCOc3ccc4c(C5CCC(=O)NC5=O)nn(C)c4c3)C(C(F)(F)F)C2)cccc1-c1ccc(N2CCc3cccc(C(=O)Nc4nc5ccccc5s4)c3C2)nc1C(=O)O (stereo not drawn) [Compound 165, 6-(8-(benzo[d]thiazol-2-ylcarbamoyl)-3,4-dihydroisoquinolin-2(1H)-yl)-3-(3-(3-(4-(3-((3-(2,6-dioxopiperidin-3-yl)-1-methyl-1H-indazol-6-yl)oxy)propyl)-3-(trifluoromethyl)piperazin-1-yl)propoxy)-2-methylphenyl)picolinic acid]
– | B (50% ≤ Ymin < 70%) | – | 0.1 to 1 | Cc1c(OCCCC2CCN(C(C)(C)C(=O)Nc3ccc4c(C5CCC(=O)NC5=O)nn(C)c4c3)CC2)cccc1-c1ccc(N2CCc3cccc(C(=O)Nc4nc5ccccc5s4)c3C2)nc1C(=O)O (stereo not drawn) [Compound 166, 6-[8-(1,3-benzothiazol-2-ylcarbamoyl)-3,4-dihydro-1H-isoquinolin-2-yl]-3-[3-[3-[1-[2-[[3-(2,6-dioxo-3-piperidyl)-1-methyl-indazol-6-yl]amino]-1,1-dimethyl-2-oxo-ethyl]-4-piperidyl]propoxy]-2-methyl-phenyl]pyridine-2-carboxylic acid]
– | B (50% ≤ Ymin < 70%) | – | < 0.1 | Cc1c(O[C@H]2CC[C@H](CC(F)(F)CN3CCN(c4cccc5c(C6CCC(=O)NC6=O)nn(C)c45)CC3)CC2)cccc1-c1ccc(N2CCc3cccc(C(=O)Nc4nc5ccccc5s4)c3C2)nc1C(=O)O (stereo partly drawn) [Compound 168a, 6-(8-(benzo[d]thiazol-2-ylcarbamoyl)-3,4-dihydroisoquinolin-2(1H)-yl)-3-(3-(((1r,4r)-4-(3-(4-(3-(2,6-dioxopiperidin-3-yl)-1-methyl-1H-indazol-7-yl)piperazin-1-yl)-2,2-difluoropropyl)cyclohexyl)oxy)-2-methylphenyl)picolinic acid]

SMILES | Ymin (6 h) | Ymin (24 h) | DC50 (6 h, read-out: EC50 (6 h)) [µM] | DC50 (24 h, read-out: EC50 (24 h)) [µM]
Cc1c(OCC[C@@H](C)C2CCN(CC(=O)Nc3ccc4c(C5CCC(=O)NC5=O)nn(C)c4c3)CC2)cccc1-c1ccc(N2CCc3cccc(C(=O)Nc4nc5ccccc5s4)c3C2)nc1C(=O)O (stereo partly drawn) [Compound 167a, 6-[8-(1,3-benzothiazol-2-ylcarbamoyl)-3,4-dihydro-1H-isoquinolin-2-yl]-3-[3-[(3R)-3-[1-[2-[[3-(2,6-dioxo-3-piperidyl)-1-methyl-indazol-6-yl]amino]-2-oxo-ethyl]-4-piperidyl]butoxy]-2-methyl-phenyl]pyridine-2-carboxylic acid] | – | A (Ymin < 50%) | – | < 0.1
Cc1c(OCC[C@H](C)C2CCN(CC(=O)Nc3ccc4c(C5CCC(=O)NC5=O)nn(C)c4c3)CC2)cccc1-c1ccc(N2CCc3cccc(C(=O)Nc4nc5ccccc5s4)c3C2)nc1C(=O)O (stereo partly drawn) [Compound 167b, 6-[8-(1,3-benzothiazol-2-ylcarbamoyl)-3,4-dihydro-1H-isoquinolin-2-yl]-3-[3-[(3S)-3-[1-[2-[[3-(2,6-dioxo-3-piperidyl)-1-methyl-indazol-6-yl]amino]-2-oxo-ethyl]-4-piperidyl]butoxy]-2-methyl-phenyl]pyridine-2-carboxylic acid] | – | B (50% ≤ Ymin < 70%) | – | < 0.1
